Source: patent US9770445B2, “Sulfoximine substituted 5-fluoro-N-(pyridin-2-yl)pyridin-2-amine derivatives and their use as CDK9 kinase inhibitors” (BAYER PHARMA AKTIENGESELLSCHAFT, priority 2013, dated 2017)

Key:
[1] = tested on: MOLM-13 human acute myeloid leukemia cells; assay: Proliferation assay, MOLM-13 (Cell Titre-Glo); type: cell-based; details: MOLM-13, 72-hour exposure, read-out: Inhibition of MOLM-13 cell proliferation
Procedure: Non-adherent MOLM-13 human acute myeloid leukemia cells (DSMZ ACC 554) were seeded at a density of 5,000 cells/well in a 96-well multititer plate in 100 μL of growth medium supplemented 10% fetal calf serum. After 24 hours, cell viability of one plate (zero-point plate) was determined with the Cell Titre-Glo Luminescent Cell Viability Assay (Promega), while 50 μL of test compound containing medium was added to the wells of the other plates (final concentrations in the range of 0.001-10 μM and DMSO controls; the final concentration of the solvent dimethyl sulfoxide was 0.5%). Cell viability was assessed after 72-hour exposure with the Cell Titre-Glo Luminescent Cell Viability Assay (Promega). IC50 values (inhibitory concentration at 50% of maximal effect) were determined by means of a 4 parameter fit on measurement data which were normalized to vehicle (DMSO) treated cells (=100%) and measurement readings taken immediately before compound exposure (=0%).

[2] = tested on: A2780, human ovarian carcinoma cells; assay: Proliferation assay, A2780 (crystal violet); type: cell-based; details: 96 h, A2780, 4 days, read-out: Inhibition of A2780 cell proliferation
Procedure: Cultivated tumour cells (HeLa, human cervical tumour cells, ATCC CCL-2; NCI-H460, human non-small cell lung carcinoma cells, ATCC HTB-177; A2780, human ovarian carcinoma cells, ECACC #93112519; DU 145, hormone-independent human prostate carcinoma cells, ATCC HTB-81; HeLa-MaTu-ADR, multidrug-resistant human cervical carcinoma cells, EPO-GmbH Berlin; Caco-2, human colorectal carcinoma cells, ATCC HTB-37; B16F10, mouse melanoma cells, ATCC CRL-6475) were plated at a density of 5,000 cells/well (DU145, HeLa-MaTu-ADR), 3,000 cells/well (NCI-H460, HeLa), 2,500 cells/well (A2780), 1,500 cells/well (Caco-2), or 1,000 cells/well (B16F10) in a 96-well multititer plate in 200 μL of their respective growth medium supplemented 10% fetal calf serum. After 24 hours, the cells of one plate (zero-point plate) were stained with crystal violet (see below), while the medium of the other plates was replaced by fresh culture medium (200 μl), to which the test substances were added in various concentrations (0 μM, as well as in the range of 0.001-10 μM; the final concentration of the solvent dimethyl sulfoxide was 0.5%). The cells were incubated for 4 days in the presence of test substances. Cell proliferation was determined by staining the cells with crystal violet: the cells were fixed by adding 20 μl/measuring point of an 11% glutaric aldehyde solution for 15 minutes at room temperature. After three washing cycles of the fixed cells with water, the plates were dried at room temperature. The cells were stained by adding 100 μl/measuring point of a 0.1% crystal violet solution (pH 3.0). After three washing cycles of the stained cells with water, the plates were dried at room temperature. The dye was dissolved by adding 100 μl/measuring point of a 10% acetic acid solution. The extinction was determined by photometry at a wavelength of 595 nm. The change of cell number, in percent, was calculated by normalization of the measured values to the extinction values of the zero-point plate (=0%) and the extinction of the untreated (0 μm) cells (=100%). […]

| IC50 [1] | IC50 [2] | SMILES |
| --- | --- | --- |
| 18 nM | 29 nM | CS(=N)(=O)Cc1ccnc(Nc2cc(-c3ccc(F)c4ccoc34)c(F)cn2)c1 (racemic) [Example 5, (rac)-5-Fluoro-4-(4-fluoro-1-benzofuran-7-yl)-N-{4-[(S-methylsulfonimidoyl)methyl]pyridin-2-yl}pyridin-2-amine] |
| 3.9 nM |  | CCc1cc(CS(C)(=N)=O)cc(Nc2cc(-c3ccc(F)c4ccoc34)c(F)cn2)n1 (racemic) [Example 8, (rac)-N-{6-Ethyl-4-[(S-methylsulfonimidoyl)methyl]pyridin-2-yl}-5-fluoro-4-(4-fluoro-1-benzofuran-7-yl)pyridin-2-amine] |
| 6.3 nM |  | Cc1cc(CS(C)(=N)=O)cc(Nc2cc(-c3ccc(F)c4ccoc34)c(F)cn2)n1 (racemic) [Example 7, (rac)-5-Fluoro-4-(4-fluoro-1-benzofuran-7-yl)-N-{6-methyl-4-[(S-methylsulfonimidoyl)-methyl]pyridin-2-yl}pyridin-2-amine] |
| 16 nM | 11 nM | CS(=N)(=O)Cc1cc(F)nc(Nc2cc(-c3ccc(F)c4ccoc34)c(F)cn2)c1 (racemic) [Example 1, (rac)-5-Fluoro-4-(4-fluoro-1-benzofuran-7-yl)-N-{6-fluoro-4-[(S-methylsulfonimidoyl)methyl]pyridin-2-yl}pyridin-2-amine] |
| 6 nM | 10 nM | CS(=N)(=O)Cc1cc(Nc2cc(-c3ccc(F)c4ccoc34)c(F)cn2)nc(C(F)(F)F)c1 (racemic) [Example 3, (rac)-5-Fluoro-4-(4-fluoro-1-benzofuran-7-yl)-N-{4-[(S-methylsulfonimidoyl)methyl]-6-(trifluoromethyl)pyridin-2-yl}pyridin-2-amine] |
